Results as given in PMC3814616, “BRAF inhibitors suppress apoptosis through off-target inhibition of JNK signaling” (eLife, 2013).

Key:
[1] = system: phospho-JNK and phospho-p38; settings: A375 and WM35, 24 hr
[2] = system: Noxa mRNA; assay: qPCR of epidermis of irradiated mice; settings: oral gavage 40–80 mg/kg twice a day, 10 kJ/m^2 UVB
[3] = system: HaCaT cells; assay: Doxorubicin-induced apoptosis, FACS; settings: 1 μM, 24 hr
[4] = system: E1A and HRAS^G12V-transformed Craf−/− MEFs; assay: Soft agar colony formation; type: cell-based, mouse; settings: 0.2 μM and 1.0 μM, 4–6 weeks
[5] = target: BRAF(V600E) (Homo sapiens, UniProt P15056, V600E); assay: biochemical
[6] = system: NHEK cells; assay: UV-induced apoptosis, FACS Annexin V+, TMRE-low; type: cell-based, human; settings: 1 kJ/m^2 UVB, 1 μM, 24 hr, vs DMSO
[7] = system: Hairless mice; assay: UV-driven cSCC development in chronically-irradiated Hairless mice; type: in vivo, mouse
Text: We also used the Hairless mouse model of squamous cell carcinoma to assess whether PLX4720 would affect UV-driven tumor development. This is particularly relevant since it appears that UV exposure is an important initiating event in BRAFi-accelerated cSCC ([Su et al., 2012]). Unlike the DMBA/TPA model, in which lesions almost universally harbor Hras mutations ([Brown et al., 1990]), the Hairless model has a very low frequency of Ras mutation in papillomas and carcinomas ([van Kranen et al., 1995]), more similar to sporadic human cSCC. […] Within 20 days of administration of drug, hyperkeratotic papules were visible on the backs of PLX4720-treated animals (Figure 5A,B), which steadily grew into cSCC over the following several weeks (Figure 5C,D). Within this period of 150 days (78 days of drug treatment), control-treated mice had not yet developed any visible lesions (Figure 5E). […]
Figure 5. […] (A and B) cDNA was reverse-transcribed from total RNA, PCR-amplified with the above primers (B) and analyzed by Sanger sequencing for mutations in both directions. No mutations in Hras, Kras, or Nras were detected in any of the papillomas (n = 5) or carcinomas (n = 3) isolated from PLX4720-treated mice. […]

[8] = system: COLO16 cells; assay: UV-induced apoptosis, FACS Annexin V+, TMRE-low; type: cell-based, human; settings: 1 kJ/m^2 UVB, 1 μM, 24 hr, vs DMSO
[9] = system: ZAK (T82Q)-expressing HaCaT cells; assay: UV-induced apoptosis in HaCaT cells overexpressing ZAK (WT) or gatekeeper mutant ZAK (T82Q); settings: 1 μM, UVB 720 J/m^2, 24 hr
[10] = system: COLO16 cells; assay: Doxorubicin-induced apoptosis, FACS; settings: 1 μM, 24 hr
[11] = system: epidermal keratinocytes of C57BL/6 mice; assay: Acute UVR-induced epidermal apoptosis in mouse skin; settings: in vivo
Text: (§1) Cutaneous squamous cell carcinomas biopsied from patients treated with or without BRAF-inhibitor were obtained either under clinical trials (Roche) or separate IRB approval (LAB08-0750). Staining levels were quantified by counting positively labeled cells and dividing by the total area of the tumor tissue within each sample. To measure tumor areas, all samples were photographed, tumor cells outlined, and total pixel numbers calculated using included image analysis tools in Adobe Photoshop and standardized to a hemacytometer to convert to mm^2. To measure apoptosis in irradiated skin, pyknotic or dyskeratotic epidermal keratinocytes were counted and normalized to length (mm) of epidermis.

[12] = target: T1, full length MAP4K5 (Homo sapiens, UniProt Q9Y4K4); assay: In vitro kinase assay (Reaction Biology); type: biochemical
T1 construct: and full length MAP4K5 (MBP substrate, ATP 10 μM) (Reaction Biology); purchased Reaction Biology

[13] = system: phospho-JNK; assay: Immunohistochemistry of cSCC from vemurafenib-treated patients vs sporadic cSCC; type: in vivo, human; settings: stained cells per mm^2 tumor, p=0.013
Method: (§2) Phospho-JNK and cleaved caspase-3 expression were assessed by immunohistochemistry and then quantified following normalization by unit area (mm^2) of tumor tissue (malignant keratinocytes) only (Figure 4A–D, Figure 4—figure supplement 1).
as §1

[14] = system: cleaved caspase-3; assay: as above; type: in vivo, human; settings: stained cells per mm^2 tumor, p=0.042
Method: as §2, §1

[15] = target: SRMS (Homo sapiens, UniProt Q9H3Y6); set-up: method as in Bollag et al., 2010; settings: ref Bollag et al., 2010; read-out: Published biochemical IC50; cited from earlier work
[16] = target: T2, TAOK3 (Homo sapiens, UniProt Q9H2K8); set-up: method as in Bollag et al., 2010; settings: ref Bollag et al., 2010; read-out: Published biochemical IC50; cited from earlier work
T2 construct: purchased KINOMEscan (DiscoveRx), San Diego, CA

[17] = target: BRK (PTK6) (Homo sapiens, UniProt Q13882); settings: ref Bollag et al., 2010; read-out: Published biochemical IC50; cited from earlier work
[18] = system: phospho-JNK and phospho-p38; assay: Western blot, UV-induced phospho-JNK and phospho-p38 in NHEKs; type: cell-based, human; settings: NHEK, 1 μM, most significantly at 6 and 24 hr
Text: We next examined the responses of primary normal human epidermal keratinocytes (NHEKs) to vemurafenib. […] In probing members of the BCL2 family, we found similar results to those in the cSCC and HaCaT cell lines. […] The advantage of using primary cells is that p53 is intact.
Figure 2. […] DOI: http://dx.doi.org/10.7554/eLife.00969.010 [drawing 5]

[19] = target: T3, MAP4K4 (Homo sapiens, UniProt O95819); set-up: method as in Bollag et al., 2010; settings: ref Bollag et al., 2010; read-out: Published biochemical IC50; cited from earlier work
T3 construct: purchased KINOMEscan (DiscoveRx), San Diego, CA
T3 sequence (O95819 whole entry): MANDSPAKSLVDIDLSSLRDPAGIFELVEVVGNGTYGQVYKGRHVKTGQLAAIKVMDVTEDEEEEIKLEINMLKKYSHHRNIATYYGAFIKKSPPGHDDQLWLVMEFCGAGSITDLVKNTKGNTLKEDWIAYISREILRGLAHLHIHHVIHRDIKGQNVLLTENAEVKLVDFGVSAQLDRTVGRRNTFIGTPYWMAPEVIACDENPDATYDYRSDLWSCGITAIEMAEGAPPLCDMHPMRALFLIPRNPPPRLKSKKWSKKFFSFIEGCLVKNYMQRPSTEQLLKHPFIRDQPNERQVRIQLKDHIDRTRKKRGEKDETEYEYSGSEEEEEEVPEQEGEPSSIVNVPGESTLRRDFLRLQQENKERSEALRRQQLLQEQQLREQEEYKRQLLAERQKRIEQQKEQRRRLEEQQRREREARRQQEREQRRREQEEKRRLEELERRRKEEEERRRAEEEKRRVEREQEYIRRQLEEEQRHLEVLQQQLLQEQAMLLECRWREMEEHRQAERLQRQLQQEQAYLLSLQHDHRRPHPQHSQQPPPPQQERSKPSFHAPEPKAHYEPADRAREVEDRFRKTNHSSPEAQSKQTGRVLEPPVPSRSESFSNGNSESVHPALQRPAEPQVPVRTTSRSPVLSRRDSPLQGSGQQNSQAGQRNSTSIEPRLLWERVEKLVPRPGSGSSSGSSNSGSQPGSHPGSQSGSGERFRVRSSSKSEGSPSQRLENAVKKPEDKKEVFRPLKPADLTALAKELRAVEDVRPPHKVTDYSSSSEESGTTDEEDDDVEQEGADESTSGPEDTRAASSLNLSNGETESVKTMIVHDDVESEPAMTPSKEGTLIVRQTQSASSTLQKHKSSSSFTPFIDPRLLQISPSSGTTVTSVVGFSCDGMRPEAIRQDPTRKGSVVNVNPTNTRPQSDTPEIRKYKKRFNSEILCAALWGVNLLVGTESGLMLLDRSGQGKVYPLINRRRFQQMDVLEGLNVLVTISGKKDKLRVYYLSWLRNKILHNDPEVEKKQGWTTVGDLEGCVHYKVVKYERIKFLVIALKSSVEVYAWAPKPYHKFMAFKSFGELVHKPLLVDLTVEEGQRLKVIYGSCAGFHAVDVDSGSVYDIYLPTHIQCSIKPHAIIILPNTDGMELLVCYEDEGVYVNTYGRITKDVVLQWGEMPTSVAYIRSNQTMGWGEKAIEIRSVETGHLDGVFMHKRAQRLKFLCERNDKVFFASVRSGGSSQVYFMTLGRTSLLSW

BRAF(V600E), sequence (P15056 whole entry V600E): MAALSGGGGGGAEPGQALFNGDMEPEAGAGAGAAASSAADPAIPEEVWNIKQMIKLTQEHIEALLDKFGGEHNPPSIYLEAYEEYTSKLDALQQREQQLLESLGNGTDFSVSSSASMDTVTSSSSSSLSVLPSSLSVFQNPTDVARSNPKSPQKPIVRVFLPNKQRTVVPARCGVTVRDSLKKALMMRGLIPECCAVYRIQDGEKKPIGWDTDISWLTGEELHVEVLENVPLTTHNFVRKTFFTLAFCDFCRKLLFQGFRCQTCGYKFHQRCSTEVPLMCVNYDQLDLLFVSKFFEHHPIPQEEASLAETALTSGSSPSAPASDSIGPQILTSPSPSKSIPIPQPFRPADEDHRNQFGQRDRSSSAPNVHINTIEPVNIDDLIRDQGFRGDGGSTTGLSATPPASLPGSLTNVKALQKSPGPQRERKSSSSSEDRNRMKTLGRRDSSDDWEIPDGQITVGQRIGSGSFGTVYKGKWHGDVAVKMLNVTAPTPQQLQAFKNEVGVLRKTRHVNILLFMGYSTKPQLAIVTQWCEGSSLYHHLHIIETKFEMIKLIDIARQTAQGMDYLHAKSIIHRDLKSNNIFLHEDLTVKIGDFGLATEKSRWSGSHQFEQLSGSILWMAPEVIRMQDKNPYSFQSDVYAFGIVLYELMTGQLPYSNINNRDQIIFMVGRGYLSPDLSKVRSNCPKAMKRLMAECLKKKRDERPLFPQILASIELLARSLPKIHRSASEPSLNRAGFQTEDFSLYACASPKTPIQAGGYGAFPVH
T1 sequence (Q9Y4K4 whole entry): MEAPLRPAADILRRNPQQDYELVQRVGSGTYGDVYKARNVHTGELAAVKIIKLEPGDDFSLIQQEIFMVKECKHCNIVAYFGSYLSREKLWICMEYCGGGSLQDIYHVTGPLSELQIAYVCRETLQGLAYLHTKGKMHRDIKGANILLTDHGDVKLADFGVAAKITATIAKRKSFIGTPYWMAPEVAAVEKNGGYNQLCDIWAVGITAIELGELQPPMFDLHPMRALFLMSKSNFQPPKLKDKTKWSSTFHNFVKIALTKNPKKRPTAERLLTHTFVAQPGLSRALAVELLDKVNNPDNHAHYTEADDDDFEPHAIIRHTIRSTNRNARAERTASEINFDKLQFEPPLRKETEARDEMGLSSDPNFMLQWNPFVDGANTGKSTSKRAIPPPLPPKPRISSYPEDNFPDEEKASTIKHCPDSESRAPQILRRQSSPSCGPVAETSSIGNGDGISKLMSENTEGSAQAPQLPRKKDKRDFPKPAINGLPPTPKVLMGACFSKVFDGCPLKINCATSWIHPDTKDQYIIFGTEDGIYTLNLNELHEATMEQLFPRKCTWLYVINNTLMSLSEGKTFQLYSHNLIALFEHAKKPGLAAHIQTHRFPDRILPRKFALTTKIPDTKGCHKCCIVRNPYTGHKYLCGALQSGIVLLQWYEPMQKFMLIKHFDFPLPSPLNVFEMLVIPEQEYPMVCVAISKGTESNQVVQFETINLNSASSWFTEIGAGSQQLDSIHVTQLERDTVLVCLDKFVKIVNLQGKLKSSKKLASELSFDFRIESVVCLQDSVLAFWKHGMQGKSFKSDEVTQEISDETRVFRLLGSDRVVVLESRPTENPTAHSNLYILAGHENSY
SRMS, sequence (Q9H3Y6 whole entry): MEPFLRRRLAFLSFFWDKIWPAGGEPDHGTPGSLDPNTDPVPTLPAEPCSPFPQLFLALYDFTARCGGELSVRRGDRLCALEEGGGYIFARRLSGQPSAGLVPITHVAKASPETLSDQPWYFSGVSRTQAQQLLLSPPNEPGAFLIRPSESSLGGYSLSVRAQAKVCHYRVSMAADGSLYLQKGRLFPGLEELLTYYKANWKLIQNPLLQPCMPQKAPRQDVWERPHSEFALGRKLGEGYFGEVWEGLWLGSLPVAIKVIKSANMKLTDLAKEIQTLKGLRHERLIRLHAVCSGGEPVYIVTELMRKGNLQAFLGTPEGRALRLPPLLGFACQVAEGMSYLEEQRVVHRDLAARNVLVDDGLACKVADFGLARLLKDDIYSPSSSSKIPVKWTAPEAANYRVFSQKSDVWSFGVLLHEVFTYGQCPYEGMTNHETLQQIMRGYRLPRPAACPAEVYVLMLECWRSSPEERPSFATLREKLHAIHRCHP
BRK (PTK6), sequence (Q13882 whole entry): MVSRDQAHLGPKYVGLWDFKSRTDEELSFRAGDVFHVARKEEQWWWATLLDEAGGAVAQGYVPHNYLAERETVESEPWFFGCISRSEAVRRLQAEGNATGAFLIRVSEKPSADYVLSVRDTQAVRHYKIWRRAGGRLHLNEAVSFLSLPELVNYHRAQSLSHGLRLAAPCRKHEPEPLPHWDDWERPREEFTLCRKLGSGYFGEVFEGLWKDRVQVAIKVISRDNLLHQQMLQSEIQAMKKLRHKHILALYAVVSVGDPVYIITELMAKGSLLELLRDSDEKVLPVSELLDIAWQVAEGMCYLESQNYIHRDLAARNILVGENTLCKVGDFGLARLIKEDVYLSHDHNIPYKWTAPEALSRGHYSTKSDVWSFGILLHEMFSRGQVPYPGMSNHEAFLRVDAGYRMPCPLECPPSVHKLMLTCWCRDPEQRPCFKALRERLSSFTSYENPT
T2 sequence (Q9H2K8 whole entry): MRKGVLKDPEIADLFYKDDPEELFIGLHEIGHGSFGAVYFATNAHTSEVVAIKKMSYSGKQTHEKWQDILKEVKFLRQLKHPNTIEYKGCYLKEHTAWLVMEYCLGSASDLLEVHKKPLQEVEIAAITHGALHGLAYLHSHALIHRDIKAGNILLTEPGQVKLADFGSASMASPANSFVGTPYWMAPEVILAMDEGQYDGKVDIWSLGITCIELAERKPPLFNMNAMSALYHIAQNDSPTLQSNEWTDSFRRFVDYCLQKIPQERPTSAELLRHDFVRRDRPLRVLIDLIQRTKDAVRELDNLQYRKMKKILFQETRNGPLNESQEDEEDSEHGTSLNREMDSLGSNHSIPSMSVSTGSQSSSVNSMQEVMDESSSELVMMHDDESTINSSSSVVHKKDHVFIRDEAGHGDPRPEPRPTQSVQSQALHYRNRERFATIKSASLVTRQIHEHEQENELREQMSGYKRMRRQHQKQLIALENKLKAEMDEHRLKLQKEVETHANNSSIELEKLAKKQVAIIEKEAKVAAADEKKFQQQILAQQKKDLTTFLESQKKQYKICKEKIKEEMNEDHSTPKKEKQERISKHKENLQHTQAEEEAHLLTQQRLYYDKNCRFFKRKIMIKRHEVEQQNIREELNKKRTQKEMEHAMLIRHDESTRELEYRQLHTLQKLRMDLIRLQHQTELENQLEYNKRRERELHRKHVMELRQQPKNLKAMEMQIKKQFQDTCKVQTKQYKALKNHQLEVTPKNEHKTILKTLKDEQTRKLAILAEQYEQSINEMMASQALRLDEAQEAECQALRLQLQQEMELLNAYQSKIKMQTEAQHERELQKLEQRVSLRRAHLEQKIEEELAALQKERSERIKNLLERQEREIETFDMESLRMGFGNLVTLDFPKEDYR

CCCS(=O)(=O)Nc1ccc(F)c(C(=O)c2c[nH]c3ncc(Cl)cc23)c1F [PLX4720]
UV-mediated induction of phospho-p38 and phospho-JNK [1]: significant suppression | UV-induced Noxa mRNA expression [2]: significantly dampened | doxorubicin-induced apoptosis (Annexin V+, TMRE-low cells) [3]: significant decrease in apoptosis | colony formation [4]: significant colony formation advantage | remaining activity at 0.05 µM ([5]; read-out: Percent control (50 nM)): 38% | remaining activity at 0.2 µM ([5]; read-out: Percent control (200 nM)): 19% | remaining activity at 1 µM ([5]; read-out: Percent control (1000 nM)): 3.9% | remaining activity at 10 µM ([5]; read-out: Percent control (10 μM)): 0.1% | suppression of UV-induced apoptosis [6]: at least 70% | reduction in latency of papillomas and cSCC ([7]; chronically-irradiated Hairless mice): at least 10 weeks | time from start of drug to visible hyperkeratotic papules ([7]; drug-impregnated chow from day 72, 12.5 kJ/m^2 per week UVB): ≤ 20 days | suppression of UV-induced apoptosis [8]: at least 70% | apoptosis of drug-treated ZAK (T82Q)-expressing cells as share of the levels in untreated cells [9]: 76.9% | doxorubicin-induced apoptosis (Annexin V+, TMRE-low cells) [10]: significant decrease in apoptosis | apoptotic epidermal keratinocytes in irradiated skin [11]: 4.9 ± 0.3 apoptotic cells/mm skin

CCCS(=O)(=O)Nc1ccc(F)c(C(=O)c2c[nH]c3ncc(-c4ccc(Cl)cc4)cc23)c1F [vemurafenib]
IC50 ([12]; MBP substrate, ATP 10 μM, read-out: biochemical IC50): 354 ± 26 nM | remaining activity at 1 µM ([12]; at 1 μM, read-out: residual activity): 25.7 ± 0.6% | phospho-JNK expression in cSCC of treated patients vs sporadic cSCC [13]: significant reductions | cleaved caspase-3 expression in cSCC of treated patients vs sporadic cSCC [14]: significant reductions | IC50 [15]: 18 nM | IC50 [16]: > 1000 nM | IC50 [17]: 213 nM | UV-induced upregulation of phospho-JNK and phospho-p38 [18]: suppressed | IC50 [19]: > 1000 nM
